Patent US8901115B2, “Cyclic P1 linkers as factor XIa inhibitors” (Bristol-Myers Squibb Company, priority 2011, dated 2014)
Where a name gives a salt, the structure may show the parent alone.

test system: not given; test: not given; conditions: from C=CCCC(=O)Nc1cc(NC(=O)OC)ccc1-c1cn(COCC[Si](C)(C)C)c([C@H](CC=C)NC(=O)OC(C)(C)C)n1; rcm bond; 13-membered ring; 1.5 h

SMILES	ring closure, yield after HPLC
COC(=O)Nc1ccc2c(c1)NC(=O)CC/C=C/C[C@H](NC(=O)OC(C)(C)C)c1nc-2cn1COCC[Si](C)(C)C	42%

test system: not given; test: not given; conditions: from C=CC[C@H](NC(=O)OC(C)(C)C)c1cc(-c2ccc(NC(=O)OC)cc2NC(=O)C(C)C=C)ccn1; rcm bond; 12-membered ring; Grubbs II (0.1 eq)/pTsOH; DCM; 4.0 mM; 40.0 °C

SMILES	ring closure, isolated yield
COC(=O)Nc1ccc2c(c1)NC(=O)C(C)C=CC[C@H](NC(=O)OC(C)(C)C)c1cc-2ccn1 (single isomer, unassigned; diastereomer a)	25%

same assay, conditions: from C=CC[C@H](NC(=O)OC(C)(C)C)c1cc(-c2ccc(NC(=O)OC)cc2NC(=O)C(C)C=C)cnc1F; rcm bond; 12-membered ring; Grubbs II (0.4 eq), microwave; DCE; 17.3 mM; 120.0 °C

SMILES	ring closure, isolated yield
COC(=O)Nc1ccc2c(c1)NC(=O)C(C)/C=C/C[C@H](NC(=O)OC(C)(C)C)c1cc-2cnc1F (stereo partly shown)	68%

same assay, conditions: from C=CC[C@H](NC(=O)OC(C)(C)C)c1nc(-c2ccc(NC(=O)OC)cc2N(C(=O)C(F)(F)F)[C@H](CC=C)C(=O)OC)cn1COCC[Si](C)(C)C; rcm bond; 12-membered ring; Grubbs II (0.03 eq); DCE; 37.7 mM; 85.0 °C; 16.0 h

SMILES	ring closure, isolated yield
COC(=O)Nc1ccc2c(c1)N(C(=O)C(F)(F)F)[C@@H](C(=O)OC)CC=CC[C@H](NC(=O)OC(C)(C)C)c1nc-2cn1COCC[Si](C)(C)C	29%

same assay, conditions: from C=CC[C@H](NC(=O)OC(C)(C)C)c1nc(-c2ccc(NC(=O)OC)cc2NC(=O)[C@H](C)C=C)cn1COCC[Si](C)(C)C; rcm bond; 12-membered ring; Grubbs II (0.4 eq)/pTsOH; DCM; 9.7 mM; 40.0 °C

SMILES	ring closure, isolated yield
COC(=O)Nc1ccc2c(c1)NC(=O)[C@H](C)/C=C/C[C@H](NC(=O)OC(C)(C)C)c1nc-2cn1COCC[Si](C)(C)C	41%

same assay, conditions: from C=CC[C@H](NC(=O)OC(C)(C)C)c1nc(-c2ccc(NC(=O)OC)cc2N[C@H](CC=C)C(=O)OC)cn1COCC[Si](C)(C)C; rcm bond; 12-membered ring; Grubbs II (0.4 eq), microwave; DCE; 40.0 mM; 120.0 °C

SMILES	ring closure, isolated yield
COC(=O)Nc1ccc2c(c1)N[C@@H](C(=O)OC)C/C=C/C[C@H](NC(=O)OC(C)(C)C)c1nc-2cn1COCC[Si](C)(C)C	23%

molecular target: purified human Factor XIa (Homo sapiens (Human), UniProt P03951); test: Factor XIa enzyme inhibition assay (chromogenic substrate S-2366); format: biochemical; conditions: substrate S-2366, 50 mM HEPES pH 7.4
Sequence (P03951 388-625): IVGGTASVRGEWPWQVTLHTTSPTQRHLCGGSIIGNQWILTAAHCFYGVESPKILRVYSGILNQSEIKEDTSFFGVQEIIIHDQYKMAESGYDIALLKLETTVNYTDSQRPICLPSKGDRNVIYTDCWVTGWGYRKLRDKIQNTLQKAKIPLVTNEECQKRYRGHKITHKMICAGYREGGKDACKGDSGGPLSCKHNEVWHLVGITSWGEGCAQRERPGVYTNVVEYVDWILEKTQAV
Sequence (P03951 19-387 partner): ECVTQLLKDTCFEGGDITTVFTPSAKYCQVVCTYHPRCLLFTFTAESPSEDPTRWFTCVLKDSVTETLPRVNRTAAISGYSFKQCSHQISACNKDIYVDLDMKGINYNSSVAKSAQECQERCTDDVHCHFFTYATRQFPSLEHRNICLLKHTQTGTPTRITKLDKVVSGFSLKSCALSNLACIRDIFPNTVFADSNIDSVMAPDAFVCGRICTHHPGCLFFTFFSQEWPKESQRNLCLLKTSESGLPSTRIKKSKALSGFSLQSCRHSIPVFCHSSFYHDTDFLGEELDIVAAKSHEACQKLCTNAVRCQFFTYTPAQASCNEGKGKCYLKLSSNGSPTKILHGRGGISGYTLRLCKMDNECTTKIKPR
Experimental: The effectiveness of compounds of the present invention as inhibitors of the coagulation Factors XIa, VIIa, IXa, Xa, XIIa, plasma kallikrein or thrombin, can be determined using a relevant purified serine protease, respectively, and an appropriate synthetic substrate. The rate of hydrolysis of the chromogenic or fluorogenic substrate by the relevant serine protease was measured both in the absence and presence of compounds of the present invention. Assays were conducted at room temperature or at 37° C. […] A decrease in the rate of absorbance or fluorescence change in the presence of inhibitor is indicative of enzyme inhibition. Such methods are known to one skilled in the art. The results of this assay are expressed as the inhibitory constant, Ki.
Values of Ki were determined by allowing the protease to react with the substrate in the presence of the inhibitor. Reactions were allowed to go for periods of 20-180 minutes (depending on the protease) and the velocities (rate of absorbance or fluorescence change versus time) were measured. The following relationships were used to calculate Ki values: (vo−vs)/vs=I/(Ki(1+S/Km)) for a competitive inhibitor with one binding site; or vs/vo=A+((B−A)/(1+((IC50/(I))^n))); and Ki=IC50/(1+S/Km) for a competitive inhibitor where: […]

Ki	SMILES
13.3 nM	COC(=O)Nc1ccc2c(c1)N[C@@H](C(=O)OC)CCCC[C@H](N1CCC(c3cccc(Cl)c3)OC1=O)c1nc-2c(C#N)[nH]1 (single isomer, unassigned) [Example 79]
41.8 nM	COC(=O)Nc1ccc2c(c1)N[C@@H](C(=O)OC)CCCC[C@H](N1CCC(c3cc(Cl)ccc3OC(F)F)OC1=O)c1nc-2c(C#N)[nH]1 (single isomer, unassigned) [Example 7]
28.8 nM	COC(=O)Nc1ccc2c(c1)NC(=O)[C@H](C)CCC[C@H](N1CC[C@H](c3nccc(Cl)c3F)N(C)C1=O)c1nc-2c[nH]1 [Example 72]
< 5 nM	COC(=O)Nc1ccc2c(c1)NC(=O)[C@H](C)CCC[C@H](N1CC[C@@H](c3c(F)ccc(Cl)c3F)OC1=O)c1cc-2ccn1 [Example 100]
12.2 nM	COC(=O)Nc1ccc2c(c1)N[C@@H](C(=O)OC)CCCC[C@H](N1CCC(c3cccc(Cl)c3)OC1=O)c1nc-2c[nH]1 (stereo partly drawn) [Example 5, Methyl (9R,14S)-14-(6-(3-chlorophenyl)-2-oxo-1,3-oxazinan-3-yl)-5-((methoxycarbonyl)amino)-8,16,18-triazatricyclo[13.2.1.0^2,7]octadeca-1(17),2,4,6,15(18)-pentaene-9-carboxylate]
9.6 nM	COC(=O)Nc1ccc2c(c1)NC(=O)[C@@H](C)CCC[C@H](N1CC[C@@H](c3c(F)ccc(Cl)c3F)OC1=O)c1ccnc-2c1 [Example 119]
< 5 nM	COC(=O)Nc1ccc2c(c1)NC(=O)C(C)CCC[C@H](N1CC[C@H](c3c(F)ccc(Cl)c3F)OC1=O)c1cc-2cnn1 (stereo partly drawn) [Example 13, Methyl N-[(14S)-14-[(6R)-6-(3-chloro-2,6-difluorophenyl)-2-oxo-1,3-oxazinan-3-yl]-10-methyl-9-oxo-8,16,17-triazatricyclo[13.3.1.0^2,7]nonadeca-1(19),2(7),3,5,15,17-hexaen-5-yl]carbamate]
< 5 nM	COC(=O)Nc1ccc2c(c1)NC(=O)[C@H](C)CCCC(N1CC(=O)N(c3c(C(F)(F)F)ccc(Cl)c3F)CC1=O)c1cc-2ccn1 (single isomer, unassigned) [Example 37, TFA salt]
7.46 nM	COC(=O)Nc1ccc2c(c1)NC(=O)[C@H](C)CCC[C@H](N1CCN(c3cccc(Cl)c3F)CC1=O)c1cc-2ccn1 [Example 20, Methyl N-[(10R,14S)-14-[4-(3-chloro-2-fluorophenyl)-2-oxopiperazin-1-yl]-10-methyl-9-oxo-8,16-diazatricyclo[13.3.1.0^2,7]nonadeca-1(19),2(7),3,5,15,17-hexaen-5-yl]carbamate]
9.48 nM	COC(=O)Nc1ccc2c(c1)NC(=O)CCCC[C@H](N1CCC(c3cccc(Cl)c3)CC1=O)c1nc-2c[nH]1 (single isomer, unassigned) [Example 147]

The next lines start with the compound.

SMILES	Ki
COC(=O)Nc1ccc2c(c1)NC(=O)CC/C=C/C[C@H](N1CCC(C)(c3c(F)ccc(Cl)c3F)OC1=O)c1nc-2c(Cl)[nH]1 (single isomer, unassigned) [Example 99]	1930 nM
COC(=O)Nc1ccc2c(c1)NC(=O)[C@H](C)CCC[C@H](N1CC[C@@H](c3nccc(Cl)c3F)N(C)C1=O)c1nc-2c[nH]1 [Example 71]	330 nM
COC(=O)Nc1ccc2c(c1)NC(=O)CC/C=C/C[C@H](N1CC[C@H](c3cc(Cl)ccc3OC(F)F)OC1=O)c1nc-2c[nH]1 [Example 77]	7.46 nM
COC(=O)Nc1ccc2c(c1)NC(=O)CC/C=C/C[C@H](N1CCC(c3cc(Cl)ccn3)NC1=O)c1nc-2c[nH]1 (single isomer, unassigned) [Example 40]	24.4 nM
COC(=O)Nc1ccc2c(c1)NC(=O)[C@H](C)CCC[C@H](N1CC[C@@H](c3c(F)ccc(Cl)c3F)NC1=O)c1nc-2c[nH]1 [Example 70]	< 5 nM
COC(=O)Nc1ccc2c(c1)NC(=O)CCCC[C@H](N1CCC(c3cccc(Cl)c3)OC1=O)c1nc-2c[nH]1 (stereo partly drawn) [Example 4, Methyl ((14S)-14-(6-(3-chlorophenyl)-2-oxo-1,3-oxazinan-3-yl)-9-oxo-8,16,18-triazatricyclo[13.2.1.0^2,7]octadeca-1(17),2,4,6,15(18)-pentaen-5-yl)carbamate]	3400 nM
COC(=O)Nc1ccc2c(c1)NC(=O)[C@H](C)CCC[C@H](N1CCC(c3c(C(F)(F)F)ccc(Cl)c3F)OC1=O)c1cc-2ccn1 (single isomer, unassigned) [Example 133]	69.3 nM
COC(=O)Nc1ccc2c(c1)NC(=O)[C@H](C)CCC[C@H](N1CCC(c3c(Cl)ccc(Cl)c3F)NC1=O)c1nc-2c[nH]1 (stereo partly drawn) [Example 18, Methyl N-[(10R,14S)-14-[4-(3,6-dichloro-2-fluorophenyl)-2-oxo-1,3-diazinan-1-yl]-10-methyl-9-oxo-8,16,18-triazatricyclo[13.2.1.0^2,7]octadeca-1(17),2,4,6,15(18)-pentaen-5-yl]carbamate]	6.83 nM
COC(=O)Nc1ccc2c(c1)NC(=O)[C@H](C)CCC[C@H](N1CCC(c3cccc(Cl)c3)CC1=O)c1cc-2ccn1 (single isomer, unassigned) [Example 152]	< 5 nM
COC(=O)Nc1ccc2c(c1)NC(=O)[C@H](C)CCC[C@H](N1CCC(c3nccc(Cl)c3F)NC1=O)c1nc-2c[nH]1 (single isomer, unassigned) [Example 58]	< 5 nM
C[C@@H]1CCC[C@H](N2CC[C@H](c3c(F)ccc(Cl)c3F)OC2=O)c2cc(ccn2)-c2cc(C(=O)O)ccc2NC1=O [Example 26, (10R,14S)-14-[(6R)-6-(3-chloro-2,6-difluorophenyl)-2-oxo-1,3-oxazinan-3-yl]-10-methyl-9-oxo-8,16-diazatricyclo[13.3.1.0^2,7]nonadeca-1(19),2,4,6,15,17-hexaene-4-carboxylic acid, TFA salt]	< 5 nM

same assay, conditions: substrate S-2366, 50 mM HEPES pH 7.4, TFA salt

Ki	SMILES
2460 nM	COC(=O)Nc1ccc2c(c1)NC(=O)CC/C=C/C[C@H](N1CCC(C)(c3c(F)ccc(Cl)c3F)OC1=O)c1nc-2c(Cl)[nH]1 (stereo partly drawn) [Example 32, Methyl N-[(12E,15S)-18-chloro-15-[6-(3-chloro-2,6-difluorophenyl)-6-methyl-2-oxo-1,3-oxazinan-3-yl]-9-oxo-8,17,19-triazatricyclo[14.2.1.0^2,7]nonadeca-1(18),2,4,6,12,16(19)-hexaen-5-yl]carbamate, TFA salt]
